The values that follow come from ChEMBL document CHEMBL1201862, “PubChem BioAssay data set” (2004).

Test [1] in a line: NIH-3T3 fibroblast cytotoxicity, dose response, cytotoxicity control, cell-based, fluorescence, Alamar Blue, secondary assay (AID 2327).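 Also: NIH-3T3 mouse fibroblasts cultured with fluconazole at 8 µg/mL.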 It is filed as functional. Background: Alamar Blue is a resazurin reagent that responds to reducing activity.
Test [2] deals with T1, Heat shock factor protein 1 (Mus musculus, UniProt P38532).
T1 sequence (P38532 whole entry): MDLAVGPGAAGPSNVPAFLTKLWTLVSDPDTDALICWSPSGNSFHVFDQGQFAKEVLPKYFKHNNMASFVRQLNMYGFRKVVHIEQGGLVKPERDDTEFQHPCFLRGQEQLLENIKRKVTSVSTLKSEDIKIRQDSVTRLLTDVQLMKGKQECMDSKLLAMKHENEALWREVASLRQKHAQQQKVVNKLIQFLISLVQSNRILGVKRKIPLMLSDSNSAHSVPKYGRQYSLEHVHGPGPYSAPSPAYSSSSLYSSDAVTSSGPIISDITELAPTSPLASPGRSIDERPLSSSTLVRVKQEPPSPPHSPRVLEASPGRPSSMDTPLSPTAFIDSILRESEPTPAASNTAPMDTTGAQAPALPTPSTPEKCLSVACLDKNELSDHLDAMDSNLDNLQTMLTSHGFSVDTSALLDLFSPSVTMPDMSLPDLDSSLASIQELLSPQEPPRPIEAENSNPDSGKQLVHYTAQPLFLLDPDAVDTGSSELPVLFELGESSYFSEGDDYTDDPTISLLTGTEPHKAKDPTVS
In words: decrease of HSF1-responsive luciferase luminescence – cell-based, NIH3T3, dose retest, confirmation (AID 2382).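 Also: NIH3T3 fibroblasts with HSF1-driven luciferase reporter stressed by proteasome inhibitor MG132; luminescence from HSF1-driven luciferase expression after 8 hours of MG132 stress.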 Format: functional.

Test [3] in a line: Trypanosoma cruzi growth suppression in host cells – NIH3T3 host cells, beta-gal luminescence, confirmation (AID 2044).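 Also: intracellular parasites grown in NIH/3T3 mouse fibroblasts as host cells; luminescent beta-galactosidase reporter signal from transgenic T. cruzi replicating inside host cells; inhibitors lower the luminescence signal.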 It is filed as functional, cell-based.
The nature of test [4]: viability of PTEN-deleted HCT116 cells – cell-based, HCT116 PTEN knockout, dose response (AID 1047).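 Also: HCT116 colon tumor cells with PTEN knocked out; cells exposed to compound for 60 hours before readout; potency for loss of cell viability measured by luminescence.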 It is filed as functional.
Test [5] is described as follows: NIH3T3 cell viability loss – ATP luminescence, mouse fibroblasts, counter-screen, dose response (AID 2010).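 Also: cells exposed to compound for about 90 hours before reading.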 It is filed as functional, cell-based. A general note: Counterscreens check selectivity or assay interference.
A short description of test [6]: viability of HCT116 lacking mutant beta-catenin – cell-based, human colon tumor, dose response (AID 1045).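 Also: HCT116 colon tumor cells with beta catenin knocked out; cells exposed to compound for 60 hours.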 It is filed as functional.
Another test concerns Streptococcus. Kind of test: GAS UMAA2166 growth inhibition – luminescence, BacTiterGlo, counter-screen for streptokinase expression inhibitor project, dose response (AID 1915).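 Also: potency for reduction of bacterial viability or growth.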 It is filed as functional, organism-based.
A short description of test [7]: THP-1 cell cytotoxicity, dose response, cytotoxicity control for non-replicating M. tuberculosis project (AID 489025). It is filed as functional.
The target in test [8] is C-C chemokine receptor type 6 (Homo sapiens, UniProt P51684). Kind of test: antagonism of CCR6 beta-arrestin recruitment – cell-based, luminescent beta-arrestin readout, dose response (AID 504728). Format: functional.
The target of another test is Beta-galactosidase (Escherichia coli, UniProt Q8VNN2). In words: detection-enzyme interference by beta-gal modulators – biochemical, E. coli enzyme, set 3, artefact control for CCR6 antagonist project, dose response (AID 504712). It is filed as functional.
Test [9] addresses T2, Replicative DNA helicase DnaB (Mycobacterium tuberculosis, UniProt P9WMR3).
T2 sequence (P9WMR3 whole entry): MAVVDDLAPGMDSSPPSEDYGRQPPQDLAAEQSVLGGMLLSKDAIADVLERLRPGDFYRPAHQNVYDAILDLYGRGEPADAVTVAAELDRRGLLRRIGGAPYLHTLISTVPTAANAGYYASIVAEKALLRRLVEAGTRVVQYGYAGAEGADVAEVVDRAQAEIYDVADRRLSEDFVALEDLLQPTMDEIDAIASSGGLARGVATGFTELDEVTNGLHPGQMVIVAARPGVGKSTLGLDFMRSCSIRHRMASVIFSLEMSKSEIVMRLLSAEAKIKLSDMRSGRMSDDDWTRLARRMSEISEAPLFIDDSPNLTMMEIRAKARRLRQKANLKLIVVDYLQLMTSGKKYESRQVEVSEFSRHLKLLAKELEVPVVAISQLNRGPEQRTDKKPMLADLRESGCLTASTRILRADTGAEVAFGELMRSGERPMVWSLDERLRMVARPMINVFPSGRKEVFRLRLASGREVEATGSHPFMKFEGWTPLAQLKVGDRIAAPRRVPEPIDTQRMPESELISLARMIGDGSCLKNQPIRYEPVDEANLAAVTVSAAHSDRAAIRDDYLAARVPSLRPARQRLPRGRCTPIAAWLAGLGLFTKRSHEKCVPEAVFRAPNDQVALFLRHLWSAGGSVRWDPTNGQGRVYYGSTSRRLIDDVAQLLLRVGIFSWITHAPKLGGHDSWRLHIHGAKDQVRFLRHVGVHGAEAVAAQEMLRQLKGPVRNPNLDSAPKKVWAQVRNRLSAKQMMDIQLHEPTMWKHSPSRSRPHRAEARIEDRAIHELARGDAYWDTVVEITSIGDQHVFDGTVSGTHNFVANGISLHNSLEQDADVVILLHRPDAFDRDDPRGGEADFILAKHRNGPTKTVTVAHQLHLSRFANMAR
In words: DnaB intein splicing inhibitors, dose response, biochemical, cell-free fluorescence (AID 449749). Format: functional.

Another test concerns the target T3, Protein RecA (Mycobacterium tuberculosis, UniProt P9WHJ3).
T3 sequence (P9WHJ3 whole entry): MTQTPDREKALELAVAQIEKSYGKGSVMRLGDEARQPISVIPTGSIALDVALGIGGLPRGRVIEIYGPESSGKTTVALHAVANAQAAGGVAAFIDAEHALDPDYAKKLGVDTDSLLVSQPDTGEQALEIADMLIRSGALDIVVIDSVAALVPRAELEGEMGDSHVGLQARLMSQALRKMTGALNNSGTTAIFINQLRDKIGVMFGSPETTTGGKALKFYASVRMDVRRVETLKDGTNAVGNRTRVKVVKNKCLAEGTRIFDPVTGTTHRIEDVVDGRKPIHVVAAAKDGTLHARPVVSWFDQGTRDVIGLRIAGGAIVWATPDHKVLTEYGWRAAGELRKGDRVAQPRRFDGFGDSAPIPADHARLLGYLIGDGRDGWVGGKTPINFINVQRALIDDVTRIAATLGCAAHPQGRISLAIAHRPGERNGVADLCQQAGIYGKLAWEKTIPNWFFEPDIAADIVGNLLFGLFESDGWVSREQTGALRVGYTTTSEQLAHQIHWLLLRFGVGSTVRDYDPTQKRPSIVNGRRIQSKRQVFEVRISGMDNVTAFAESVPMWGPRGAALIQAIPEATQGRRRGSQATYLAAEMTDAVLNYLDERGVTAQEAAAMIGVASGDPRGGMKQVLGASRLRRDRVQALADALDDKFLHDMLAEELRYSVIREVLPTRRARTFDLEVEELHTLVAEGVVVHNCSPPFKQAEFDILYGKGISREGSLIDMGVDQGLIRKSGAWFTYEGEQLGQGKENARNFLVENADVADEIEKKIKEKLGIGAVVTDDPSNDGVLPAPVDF
Kind of test: Fluorescence Cell-Free Homogeneous Dose Retest to Identify Inhibitors of RecA-Intein Splicing Activity. [Related pubchem assays (depositor defined):AID2097, AID2223, AID489010, AID492950]. It is filed as functional.

Calls of active or inactive are those of the source.

Chain of C-C chemokine receptor type 6 (P51684 whole entry): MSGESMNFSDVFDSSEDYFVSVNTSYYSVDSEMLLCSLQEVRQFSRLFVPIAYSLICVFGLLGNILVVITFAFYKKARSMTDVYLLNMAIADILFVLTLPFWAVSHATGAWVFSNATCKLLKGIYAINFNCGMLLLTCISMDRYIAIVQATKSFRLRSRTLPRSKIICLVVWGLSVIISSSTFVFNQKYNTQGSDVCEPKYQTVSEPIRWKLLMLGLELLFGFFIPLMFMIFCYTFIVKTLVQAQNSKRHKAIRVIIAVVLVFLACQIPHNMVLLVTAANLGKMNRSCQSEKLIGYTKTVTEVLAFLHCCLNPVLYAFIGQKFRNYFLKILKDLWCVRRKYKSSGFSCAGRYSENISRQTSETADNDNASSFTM
Chain of Beta-galactosidase (Q8VNN2 whole entry): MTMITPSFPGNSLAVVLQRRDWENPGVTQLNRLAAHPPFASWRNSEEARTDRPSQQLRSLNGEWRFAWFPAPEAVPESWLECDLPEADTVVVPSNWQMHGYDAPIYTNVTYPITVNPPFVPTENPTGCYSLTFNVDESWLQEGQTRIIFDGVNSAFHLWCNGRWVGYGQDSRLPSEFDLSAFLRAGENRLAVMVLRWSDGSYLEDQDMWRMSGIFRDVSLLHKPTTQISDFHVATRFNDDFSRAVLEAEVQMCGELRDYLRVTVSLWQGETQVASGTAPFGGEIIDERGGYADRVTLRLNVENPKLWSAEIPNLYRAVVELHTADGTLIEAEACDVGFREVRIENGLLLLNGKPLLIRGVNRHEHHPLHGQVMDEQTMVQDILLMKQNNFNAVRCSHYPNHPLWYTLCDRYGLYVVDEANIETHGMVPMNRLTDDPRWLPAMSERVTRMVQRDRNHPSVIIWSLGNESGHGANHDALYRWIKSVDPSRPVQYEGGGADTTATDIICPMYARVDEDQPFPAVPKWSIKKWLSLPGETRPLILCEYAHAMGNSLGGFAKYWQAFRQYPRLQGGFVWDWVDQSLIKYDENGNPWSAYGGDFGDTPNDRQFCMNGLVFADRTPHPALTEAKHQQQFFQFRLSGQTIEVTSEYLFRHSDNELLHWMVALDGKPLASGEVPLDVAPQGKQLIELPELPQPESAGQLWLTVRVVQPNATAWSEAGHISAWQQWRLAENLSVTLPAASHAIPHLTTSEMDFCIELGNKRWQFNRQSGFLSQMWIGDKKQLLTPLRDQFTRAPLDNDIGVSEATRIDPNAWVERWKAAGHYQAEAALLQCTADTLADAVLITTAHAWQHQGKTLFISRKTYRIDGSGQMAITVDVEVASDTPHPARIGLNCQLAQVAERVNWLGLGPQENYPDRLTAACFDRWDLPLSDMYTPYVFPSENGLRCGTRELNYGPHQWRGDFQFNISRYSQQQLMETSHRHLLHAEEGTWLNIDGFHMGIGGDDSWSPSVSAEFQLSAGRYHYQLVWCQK

For orientation: EC50 means the concentration at which the effect is half-maximal. As usually defined, the CC50 is the concentration giving 50% cytotoxicity. Broadly, the IC50 is the point on the concentration scale where inhibition reaches its midpoint. Usually AC50 stands for the concentration giving half of the maximal activity seen. `O=C1C(Nc2ccccc2)=C/C(=N/S(=O)(=O)c2cccs2)c2ccccc21`: the EC50 in test [1] is 2660 nM (inconclusive); in test [2], 1090 nM (active); in test [3], 1140 nM (active); in test [4], 4130 nM (active); in [5], 1290 nM (active); in test [6] it was 4630 nM (active). In addition, the EC50 with Streptococcus was 4210 nM (active); at Protein RecA, 143 nM (active). The half-maximal cytotoxic concentration (CC50) in [7] was 1800 nM (active). Moreover, the IC50 in test [8] is 34800 nM (inactive); at Beta-galactosidase it was > 66600 nM (inactive). In addition, the AC50 in [9] was 187 nM (active).
